Laboratory results from ChEMBL document CHEMBL5113434, “Discovery of novel Thieno[2,3-d]imidazole derivatives as agonists of human STING for antitumor immunotherapy using systemic administration” (Eur J Med Chem, 2022).
Each block holds one compound with its values, some of them ahead of it. Active and inactive are the calls of the source. No cut-off for these calls is given here.

Experiments:
[1] = target: T1, Stimulator of interferon genes protein (Mus musculus) (UniProt Q3TBT3); experiment: Agonist activity at STING in mouse RAW-Lucia ISG cells assessed as fold change in ISG activation at 50 uM incubated for 24 hrs by Quanti-luc reagent based assay relative to control; format: cell-based; conditions: filed as agonist
T1 sequence (whole entry): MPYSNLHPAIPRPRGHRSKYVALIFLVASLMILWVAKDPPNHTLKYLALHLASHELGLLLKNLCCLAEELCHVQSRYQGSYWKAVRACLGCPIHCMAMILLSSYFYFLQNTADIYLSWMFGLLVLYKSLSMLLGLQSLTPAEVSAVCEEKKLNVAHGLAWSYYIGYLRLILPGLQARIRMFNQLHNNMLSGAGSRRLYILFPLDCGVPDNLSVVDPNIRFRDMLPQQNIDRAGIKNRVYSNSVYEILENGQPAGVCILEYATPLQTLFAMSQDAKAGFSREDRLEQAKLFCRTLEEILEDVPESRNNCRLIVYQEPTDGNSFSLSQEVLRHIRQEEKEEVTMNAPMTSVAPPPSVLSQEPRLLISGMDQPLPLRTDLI

[2] = target: T2, Stimulator of interferon genes protein (Homo sapiens, UniProt Q86WV6); experiment: Agonist activity at STING in human THP1-Dual cells assessed as fold change in ISG activation at 10 uM incubated for 24 hrs by Quanti-luc reagent based assay relative to control; format: cell-based; conditions: filed as agonist
Target sequence in this assay (Q86WV6 whole entry): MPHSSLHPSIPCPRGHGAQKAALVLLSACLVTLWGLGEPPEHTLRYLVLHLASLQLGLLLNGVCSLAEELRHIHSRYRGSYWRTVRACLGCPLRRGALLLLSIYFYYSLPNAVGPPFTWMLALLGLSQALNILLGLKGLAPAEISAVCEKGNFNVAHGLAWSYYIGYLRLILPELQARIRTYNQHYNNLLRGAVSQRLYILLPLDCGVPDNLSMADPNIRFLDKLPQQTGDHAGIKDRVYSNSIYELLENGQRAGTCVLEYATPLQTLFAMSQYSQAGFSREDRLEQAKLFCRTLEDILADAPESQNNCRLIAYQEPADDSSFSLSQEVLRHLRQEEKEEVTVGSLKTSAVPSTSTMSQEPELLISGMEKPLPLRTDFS

[3] = target: T3, Stimulator of interferon genes protein (Mus musculus, UniProt Q3TBT3); experiment: Agonist activity at STING in mouse RAW-Lucia ISG cells assessed as ISG activation incubated for 24 hrs by Quanti-luc reagent based assay; format: cell-based
T3 sequence (Q3TBT3 whole entry): T1 sequence (whole entry)

[4] = target: T2, Stimulator of interferon genes protein; experiment: Agonist activity at STING in human THP1-Dual cells assessed as ISG activation incubated for 24 hrs by Quanti-luc reagent based assay; format: cell-based
Target sequence in this assay (Q86WV6 whole entry): as above

[5] = Observed clearance in BALB/c mouse at 1 mg/kg, iv measured up to 24 hrs by UPLC-MS/MS analysis; format: ADME, organism-based; conditions: in vivo
[6] = Half life in BALB/c mouse at 1 mg/kg, iv measured up to 24 hrs by UPLC-MS/MS analysis; format: ADME, organism-based; conditions: in vivo
[7] = Observed AUC infinity in BALB/c mouse at 1 mg/kg, iv measured up to 24 hrs by UPLC-MS/MS analysis; format: ADME, organism-based; set-up: dose 1 mg/kg, time < 24 hrs, route iv; conditions: in vivo
[8] = AUClast in BALB/c mouse at 1 mg/kg, iv measured up to 24 hrs by UPLC-MS/MS analysis; format: ADME, organism-based; set-up: time < 24 hrs, dose 1 mg/kg, route iv; conditions: in vivo
[9] = Observed volume of distribution at steady state in BALB/c mouse at 1 mg/kg, iv measured up to 24 hrs by UPLC-MS/MS analysis; format: ADME, organism-based; conditions: in vivo, read-out: Vdss
[10] = target: T2, Stimulator of interferon genes protein; experiment: Agonist activity at STING (unknown origin)
Target sequence in this assay (Q86WV6 whole entry): as above

[11] = system: 4T1; experiment: Antitumour activity against mouse 4T1 cells implanted in BALB/c mouse assessed as tumor growth inhibition at 20 mg/kg, iv administered on day 1,4,7 and measured for 20 days relative to control; format: functional; conditions: 4T1, 480 h, time 20 day, read-out: TGI
[12] = target: T2, Stimulator of interferon genes protein; experiment: Activation of STING pathway in human 293T-Dual hSTING-R232 cells assessed as increase in ISG expression level measured for 24 hrs by SEAP reporter based Quanti-luc assay; format: cell-based; conditions: filed as activator, dose 0.01-1 µM, DDE = dose-dependent effect
Target sequence in this assay (Q86WV6 whole entry): as above

[13] = species: Mus musculus; experiment: Binding affinity to mouse STING R231 mutant assessed as thermal stability by measuring change in melting temperature by differential scanning fluorimetry; conditions: filed as agonist
[14] = target: T2, Stimulator of interferon genes protein; experiment: Activation of STING pathway in human 293T-Dual hSTING-R232 cells assessed as increase in IFNbeta expression level measured for 24 hrs by SEAP reporter based Quanti-luc assay; format: cell-based; conditions: filed as activator, dose 0.01-1 µM, DDE = dose-dependent effect
Target sequence in this assay (Q86WV6 whole entry): as above

[15] = target: T2, Stimulator of interferon genes protein; experiment: Activation of STING pathway in human 293T-Dual hSTING-H232 cells assessed as increase in IFNbeta expression level measured for 24 hrs by SEAP reporter based Quanti-luc assay; format: cell-based; conditions: filed as activator, dose 0.01-1 µM, DDE = dose-dependent effect
Target sequence in this assay (Q86WV6 whole entry): as above

[16] = target: T2, Stimulator of interferon genes protein; experiment: Activation of STING pathway in human 293T-Dual hSTING-H232 cells assessed as increase in ISG expression level measured for 24 hrs by SEAP reporter based Quanti-luc assay; format: cell-based; conditions: filed as activator, dose 0.01-1 µM, DDE = dose-dependent effect
[17] = system: CT26; experiment: Antitumour activity against mouse CT26 cells implanted in BALB/c mouse assessed as suppression of tumor growth at 10 mg/kg, iv administered on day 1,4,7 and measured for 20 days; format: functional, organism-based; conditions: time 20.0 day
[18] = system: CT26; experiment: Antitumor immunity against mouse CT26 cells implanted in BALB/c mouse assessed as increase in IP-10 level in plasma at 5 mg/kg, IT administered on day 1,4,7 for 20 days and measured 6 hrs post last dose; format: functional, organism-based; conditions: time 20.0 day
[19] = target: T2, Stimulator of interferon genes protein; experiment: Activation of STING pathway in human THP1-Dual cells assessed as increase in IP-10 expression level at 0.01 to 1 uM measured for 24 hrs by chemiluminescence based analysis; format: cell-based; conditions: filed as activator, dose 0.01-1 µM
[20] = target: T2, Stimulator of interferon genes protein; experiment: Activation of STING pathway in human THP1-Dual cells assessed as increase in IRF3 phosphorylation at 0.01 to 1 uM measured for 4 hrs by immunoblotting analysis; format: cell-based; conditions: filed as activator, dose 0.01-1 µM
[21] = system: CT26; experiment: Antitumor immunity against mouse CT26 cells implanted in BALB/c mouse assessed as increase in IFN-beta level in plasma at 5 mg/kg, IT administered on day 1,4,7 for 20 days and measured 6 hrs post last dose; format: functional, organism-based; conditions: time 20.0 day
[22] = system: CT26; experiment: Antitumor immunity against mouse CT26 cells implanted in BALB/c mouse assessed as increase in IFN-beta level in plasma at 10 mg/kg, iv administered on day 1,4,7 for 20 days and measured 6 hrs post last dose; format: functional, organism-based; conditions: time 20.0 day
[23] = target: T2, Stimulator of interferon genes protein; experiment: Activation of STING pathway in human THP1-Dual cells assessed as increase in TBK1 phosphorylation at 0.01 to 1 uM measured for 4 hrs immunoblotting analysis; format: cell-based; conditions: filed as activator, dose 0.01-1 µM
[24] = Toxicity in BALB/c mouse xenografted with 4T1 cells assessed as body weight loss at 10 to 20 mg/kg, iv administered on day 1,4,7 and measured for 20 days; format: organism-based; conditions: in vivo, 480 h, dose 10-20 mg/kg, time 20 day
[25] = target: T2, Stimulator of interferon genes protein; experiment: Activation of STING pathway in human THP1-Dual cells assessed as increase in IFNbeta expression level at 0.01 to 1 uM measured for 24 hrs by chemiluminescence based analysis; format: cell-based; conditions: filed as activator, dose 0.01-1 µM
[26] = system: Stimulator of interferon genes protein (Homo sapiens), Q86WV6 [UNDEFINED MUTATION]; experiment: Binding affinity to human STING R232 mutant assessed as thermal stability by measuring change in melting temperature by differential scanning fluorimetry; conditions: filed as agonist
Chain of Stimulator of interferon genes protein (Homo sapiens), Q86WV6 [UNDEFINED MUTATION] (Q86WV6 whole entry, looked up, stated change not applied): as the sequence (Q86WV6 whole entry) above

[27] = system: Stimulator of interferon genes protein (Homo sapiens), Q86WV6 [G230A,R293Q]; experiment: Binding affinity to human STING AQ mutant assessed as thermal stability by measuring change in melting temperature by differential scanning fluorimetry; conditions: filed as agonist
Chain of Stimulator of interferon genes protein (Homo sapiens), Q86WV6 [G230A,R293Q] (Q86WV6 whole entry G230A/R293Q): as the sequence (Q86WV6 whole entry) above, with G230A, R293Q counted along it

[28] = system: Stimulator of interferon genes protein (Homo sapiens), Q86WV6 [R293Q]; experiment: Binding affinity to human STING 293Q mutant assessed as thermal stability by measuring change in melting temperature by differential scanning fluorimetry; conditions: filed as agonist
Chain of Stimulator of interferon genes protein (Homo sapiens), Q86WV6 [R293Q] (Q86WV6 whole entry R293Q): as the sequence (Q86WV6 whole entry) above, with R293Q counted along it

[29] = system: CT26; experiment: Antitumour activity against mouse CT26 cells implanted in BALB/c mouse assessed as suppression of tumor growth at 5 mg/kg, IT administered on day 1,4,7 and measured for 20 days; format: functional, organism-based; conditions: time 20.0 day
[30] = target: T1, Stimulator of interferon genes protein (Mus musculus); experiment: Activation of STING pathway in mouse RAW-Lucia ISG cells assessed as increase in ISG expression level at 12.5 to 50 uM measured for 24 hrs by Quanti-luc reagent based assay; format: cell-based; conditions: filed as activator, dose 12.5-50 µM
[31] = target: T2, Stimulator of interferon genes protein; experiment: Binding affinity to His6-tagged human wild type STING R232 variant by homogeneous time-resolved fluorescence assay
Target sequence in this assay (Q86WV6 whole entry, looked up, change not shown): as the sequence (Q86WV6 whole entry) above

[32] = system: CT26; experiment: Antitumor immunity against mouse CT26 cells implanted in BALB/c mouse assessed as increase in IP-10 level in plasma at 10 mg/kg, iv administered on day 1,4,7 for 20 days and measured 6 hrs post last dose; format: functional, organism-based; conditions: time 20.0 day
[33] = species: Homo sapiens; experiment: Binding affinity to human STING H232 mutant assessed as thermal stability by measuring change in melting temperature by differential scanning fluorimetry; conditions: filed as agonist
[34] = system: 4T1; experiment: Antitumour activity against mouse 4T1 cells implanted in BALB/c mouse assessed as tumor growth inhibition at 10 mg/kg, iv administered on day 1,4,7 and measured for 20 days relative to control; format: functional; conditions: 4T1, 480 h, time 20 day, read-out: TGI
[35] = target: T2, Stimulator of interferon genes protein; experiment: Agonist activity at human STING in human THP1-Dual cells assessed as activation of NF-kappB signaling pathway measured after 24 hrs by Quanti-luc reagent based assay; format: cell-based; conditions: filed as agonist, dose 0.0001-1 µM, DDE = dose-dependent effect
[36] = target: T2, Stimulator of interferon genes protein; experiment: Agonist activity at human STING in human THP1-Dual cells assessed as activation of ISG signaling pathway measured after 24 hrs by Quanti-luc reagent based assay; format: cell-based; conditions: filed as agonist, dose 0.0001-1 µM, DDE = dose-dependent effect

Structure (SMILES): CCn1nc(C)cc1C(=O)Nc1nc2cc(C(N)=O)sc2n1C/C=C/Cn1c(NC(=O)c2cc(C)nn2CC)nc2cc(C(N)=O)cc(OC3COC3)c21
fold change (FC) [1]: 10.2
fold change (FC) [2]: 49.2
EC50 [3]: > 100 µM
EC50 [4]: 1.56 µM

Structure (SMILES): O=C(c1ccc([N+](=O)[O-])cc1)N1CCc2cc(S(=O)(=O)N3C[C@@H](c4ccccc4)NC3=O)ccc21
EC50 [10]: 0.18 µM

Structure (SMILES): CCn1nc(C)cc1C(=O)Nc1nc2cc(C(N)=O)sc2n1C/C=C/Cn1c(NC(=O)c2cc(C)nn2CC)nc2cc(C(N)=O)cc(O[C@H]3CCOC3)c21
fold change (FC) [1]: 1.5
fold change (FC) [2]: 80.3
EC50 [3]: > 100 µM
EC50 [4]: 1.86 µM

Structure (SMILES): CCn1nc(C)cc1C(=O)Nc1nc2cc(C(N)=O)sc2n1C/C=C/Cn1c(NC(=O)c2cc(C)nn2CC)nc2cc(C(N)=O)cc(OC(C)C)c21
fold change (FC) [1]: 13.5
fold change (FC) [2]: 60.4
EC50 [3]: 63.7 µM
EC50 [4]: 5.82 µM

Structure (SMILES): Nc1ncnc2c1ncn2[C@@H]1O[C@@H]2COP(=O)(O)O[C@H]3[C@@H](O)[C@H](n4cnc5c(N)ncnc54)O[C@@H]3COP(=O)(O)O[C@H]2[C@H]1O
EC50 [10]: 0.0513 µM

The next lines start with results.

clearance [5]: 26 mL/min/kg
half-life [6]: 1.14 h
AUC(0-inf) [7]: 666 ng·h/mL
AUC(0-t) at 24 h [8]: 657 ng·h/mL
Vd [9]: 0.965 L/kg
Structure (SMILES): CCn1nc(C)cc1C(=O)Nc1nc2cc(C(N)=O)cc(OC)c2n1C/C=C/Cn1c(NC(=O)c2cc(C)nn2CC)nc2cc(C(N)=O)cc(OCCCN3CCOCC3)c21

fold change (FC) [1]: 1.18
fold change (FC) [2]: 2.32
Structure (SMILES): CCn1nc(C)cc1C(=O)Nc1nc2cc(NC(C)=O)ccc2n1CCCCn1c(NC(=O)c2cc(C)nn2CC)nc2cc(C(N)=O)cc(OCCCN3CCOCC3)c21

clearance [5]: 26.3 mL/min/kg
half-life [6]: 1.62 h
AUC(0-inf) [7]: 711 ng·h/mL
Activity [12]: Dde
ΔTm [13]: 13.3 °C
Activity [14]: Dde
Activity [15]: Dde
Activity [16]: Dde
Activity [19]: Active
Activity [20]: Active
fold change (FC) [1]: 20.7
fold change (FC) [2]: 145
EC50 [3]: 32.8 µM
Activity [23]: Active
Activity [25]: Active
ΔTm [26]: 6.6 °C
ΔTm [27]: 12.4 °C
ΔTm [28]: 11.1 °C
Activity [30]: Active
IC50 [31]: 0.0006 µM
AUC(0-t) at 24 h [8]: 701 ng·h/mL
EC50 [4]: 0.0012 µM
ΔTm [33]: 12.8 °C
Activity [35]: Dde
Vd [9]: 1.52 L/kg
Activity [36]: Dde
Structure (SMILES): CCn1nc(C)cc1C(=O)Nc1nc2cc(C(N)=O)sc2n1C/C=C/Cn1c(NC(=O)c2cc(C)nn2CC)nc2cc(C(N)=O)cc(OCCCN3CCOCC3)c21
inhibition in vivo at 20 mg/kg [11]: 74%
Activity [17]: Active
Activity [18]: Active
Activity [21]: Active
Activity [22]: Active
Activity [24]: Non-Toxic
Activity [29]: Active
Activity [32]: Active
inhibition in vivo at 10 mg/kg [34]: 61%

fold change (FC) [1]: 1.39
fold change (FC) [2]: 11
Structure (SMILES): CCn1nc(C)cc1C(=O)Nc1nc2cc(NC(=O)CN)ccc2n1CCCCn1c(NC(=O)c2cc(C)nn2CC)nc2cc(C(N)=O)cc(OCCCN3CCOCC3)c21
